From ChEMBL document CHEMBL1201862, “PubChem BioAssay data set” (2004) come the findings set out here.

Active and inactive are the calls of the source.

For data set [1], the target named is Cytochrome P450 2C9 (Homo sapiens, UniProt P11712).
Data set [2] is described as follows: NIH3T3 cell viability loss – ATP luminescence, mouse fibroblasts, counter-screen, dose response (AID 2010).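 Note: cells exposed to compound for about 90 hours before reading.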 It is filed as functional, cell-based. (In general: A counterscreen serves to expose hits that act by an unwanted route or on another target.)
The nature of data set [3]: Trypanosoma cruzi growth suppression in host cells – NIH3T3 host cells, beta-gal luminescence, confirmation (AID 2044).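 Note: intracellular parasites grown in NIH/3T3 mouse fibroblasts as host cells; luminescent beta-galactosidase reporter signal from transgenic T. cruzi replicating inside host cells; inhibitors lower the luminescence signal.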 The data set is classed as functional, cell-based.
The nature of data set [4]: Luminescence Cell-Based Dose Retest to Confirm Inhibitors of Cancer Stem Cells. [Related pubchem assays (depositor defined):AID2717, AID2721]. It is filed as functional. The following applies: Homo sapiens.
Data set [5] has as its target T1, Heat shock factor protein 1 (Mus musculus, UniProt P38532).
T1 sequence (P38532 whole entry): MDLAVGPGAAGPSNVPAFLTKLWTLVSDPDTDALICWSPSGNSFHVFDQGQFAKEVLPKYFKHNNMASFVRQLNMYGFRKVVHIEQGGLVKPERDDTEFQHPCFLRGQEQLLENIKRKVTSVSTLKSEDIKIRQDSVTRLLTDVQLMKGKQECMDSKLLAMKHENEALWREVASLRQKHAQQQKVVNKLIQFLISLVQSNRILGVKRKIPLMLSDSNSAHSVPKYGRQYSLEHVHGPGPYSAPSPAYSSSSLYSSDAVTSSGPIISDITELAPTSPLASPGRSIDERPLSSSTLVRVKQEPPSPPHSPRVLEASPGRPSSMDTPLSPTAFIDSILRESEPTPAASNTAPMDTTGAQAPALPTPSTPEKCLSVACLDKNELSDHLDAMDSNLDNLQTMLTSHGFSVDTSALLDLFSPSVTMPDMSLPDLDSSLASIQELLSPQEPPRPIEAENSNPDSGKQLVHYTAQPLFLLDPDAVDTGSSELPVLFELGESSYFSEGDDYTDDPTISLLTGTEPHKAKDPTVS
The experiment in a line: decrease of HSF1-responsive luciferase luminescence – cell-based, NIH3T3, dose retest, confirmation (AID 2382).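 Note: NIH3T3 fibroblasts with HSF1-driven luciferase reporter stressed by proteasome inhibitor MG132; luminescence from HSF1-driven luciferase expression after 8 hours of MG132 stress.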 It is filed as functional.

Data set [6] concerns the target Cytochrome P450 2C19 (Homo sapiens, UniProt P33261). The experiment in a line: Cytochrome panel assay with activity outcomes. Panel member name: p450-cyp2c19 Compounds with AC50 equal or less than 10 uM are considered active. The data set is classed as functional.
In data set [7] the target is Cytochrome P450 3A4 (Homo sapiens, UniProt P08684).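 Note: CYP3A4 tested as one member of a cytochrome P450 panel screen.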
Cytochrome P450 3A4, sequence (P08684 whole entry): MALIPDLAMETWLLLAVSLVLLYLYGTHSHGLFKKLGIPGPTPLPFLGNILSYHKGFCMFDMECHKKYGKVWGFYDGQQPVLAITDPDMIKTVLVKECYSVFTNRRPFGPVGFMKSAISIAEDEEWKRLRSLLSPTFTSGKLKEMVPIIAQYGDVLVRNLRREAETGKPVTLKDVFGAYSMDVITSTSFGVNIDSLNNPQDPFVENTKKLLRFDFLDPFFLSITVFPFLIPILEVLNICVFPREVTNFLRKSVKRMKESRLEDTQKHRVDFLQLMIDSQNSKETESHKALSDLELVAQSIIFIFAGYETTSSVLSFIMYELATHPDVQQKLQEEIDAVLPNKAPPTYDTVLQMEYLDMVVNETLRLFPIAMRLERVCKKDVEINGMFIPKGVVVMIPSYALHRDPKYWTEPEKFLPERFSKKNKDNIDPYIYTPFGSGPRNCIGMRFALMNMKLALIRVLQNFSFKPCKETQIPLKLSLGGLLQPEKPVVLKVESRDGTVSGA

Cytochrome P450 2C9, sequence (P11712 whole entry): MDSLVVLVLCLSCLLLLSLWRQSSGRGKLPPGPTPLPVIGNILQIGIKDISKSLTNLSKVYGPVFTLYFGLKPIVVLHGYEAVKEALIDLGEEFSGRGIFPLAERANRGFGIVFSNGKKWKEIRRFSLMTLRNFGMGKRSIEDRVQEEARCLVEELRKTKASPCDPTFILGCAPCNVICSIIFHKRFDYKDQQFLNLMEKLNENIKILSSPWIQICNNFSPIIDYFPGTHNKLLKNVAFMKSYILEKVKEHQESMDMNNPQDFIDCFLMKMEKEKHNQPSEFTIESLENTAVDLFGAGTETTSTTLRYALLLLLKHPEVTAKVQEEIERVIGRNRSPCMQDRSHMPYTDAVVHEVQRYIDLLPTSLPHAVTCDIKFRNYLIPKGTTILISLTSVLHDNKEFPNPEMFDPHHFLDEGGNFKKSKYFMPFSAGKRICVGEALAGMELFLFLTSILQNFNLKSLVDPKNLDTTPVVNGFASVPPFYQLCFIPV
Cytochrome P450 2C19, sequence (P33261 whole entry): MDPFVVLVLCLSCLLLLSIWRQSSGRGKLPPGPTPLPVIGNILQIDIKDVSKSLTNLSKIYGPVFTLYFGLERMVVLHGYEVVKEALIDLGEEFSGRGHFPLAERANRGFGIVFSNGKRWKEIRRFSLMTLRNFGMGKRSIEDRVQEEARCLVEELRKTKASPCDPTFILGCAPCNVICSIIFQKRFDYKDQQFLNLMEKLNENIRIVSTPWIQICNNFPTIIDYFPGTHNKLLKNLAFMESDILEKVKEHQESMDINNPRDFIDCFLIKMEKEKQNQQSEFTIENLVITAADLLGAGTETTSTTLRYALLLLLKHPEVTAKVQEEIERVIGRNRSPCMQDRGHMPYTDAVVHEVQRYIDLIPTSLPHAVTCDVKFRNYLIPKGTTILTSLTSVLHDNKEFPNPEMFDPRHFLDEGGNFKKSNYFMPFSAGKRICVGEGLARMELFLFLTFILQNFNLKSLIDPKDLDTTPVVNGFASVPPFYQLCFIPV

One may read the AC50 as the concentration at which the activity in the assay is half-maximal. In the case of `Cc1cc(N2CCOCC2)ncc1[N+](=O)[O-]`, the half-maximal activity concentration (AC50) in data set [1] was 14.1 µM (inconclusive).
On to `CCOC(=O)c1c(C)nc2c(c1-c1ccccc1)C(=O)CC(C)(C)C2`, for which, in data set [1], the AC50 was 15.8 µM (inconclusive).
One may read the EC50 as the concentration needed to bring the measured effect to its halfway point. Regarding `O=S(=O)(NCC(c1cccnc1)N1CCN(Cc2ccccc2)CC1)c1ccc(Cl)cc1` (stereo unspecified), the EC50 in data set [2] is > 60 µM (not active); in data set [3], 0.641 µM (active).
On to `COc1ccc(/C=C/C(=O)OCCCN(C)C)cc1`, for which the EC50 in data set [2] was > 60 µM (not active); in data set [3], 0.237 µM (active).
Regarding `CCC1=NN(C(=O)c2ccc(Cl)cc2)C(O)(c2ccc(C)cc2)C1` (stereo unspecified), the AC50 in data set [4] is 4.64 µM (active).
As to `Cn1c(=N)n(CC(O)c2ccccc2)c2ccccc21` (stereo unspecified), in data set [5], the EC50 was > 195 µM (not active).
Take `Cc1cccn2c(=O)c3cc(C(=O)N4COCC4(C)C)n(C)c3nc12`: in data set [6] (read-out: AC50), the AC50 was 4.47 µM (inconclusive).
In the case of `N#Cc1cc(-c2ccc(Cl)cc2)cnc1Sc1ccccc1`, the half-maximal effective concentration (EC50) in data set [2] is > 60 µM (not active); in data set [3], 3.77 µM (active).
On to `CCc1ccc(NC(=O)C2CCC(CNC(=O)[C@@H]3Cc4ccccc4CN3)CC2)cc1` (stereo partly specified), for which, in data set [5], the EC50 is > 195 µM (not active).
For the compound `CCSc1nnc(NC(=O)Cc2ccc(OC)c(OC)c2)s1`, the AC50 in data set [6] (read-out: AC50) is 28.2 µM (inconclusive); in data set [1] it was 2.82 µM (inconclusive).
Regarding `CC(=O)CC(=O)Nc1ccc2ccccc2c1`, in data set [6], the AC50 result is on record as “inconclusive”.
`C/C(=N\NC(=O)c1c(C)nc2ccccn12)c1ccc(C(C)(C)C)cc1`: in data set [5], the EC50 is reported as > 195 µM (not active).
Take `CCn1cc(S(=O)(=O)Nc2ccc3c(c2)OCCO3)cn1`: the EC50 in data set [5] is 1.86 µM (active).
For the compound `Cc1cccc(CNc2nc(-c3ccc4c(c3)OCO4)nc3ccccc23)c1`, the AC50 in data set [1] was 1 µM (inconclusive).
Consider `Cc1ccc(C(=O)N(CCCN(C)C)c2nc3ccc(Cl)cc3s2)cc1C`, for which the figures for the EC50 in data set [2] and in data set [3] were > 60 µM (inconclusive) and 0.216 µM (active), respectively.
Turning to `Cc1cccc(N(C(=O)C(F)(F)F)C(C(=O)NC2CCCCC2)c2cccs2)c1` (stereo unspecified), the EC50 in data set [2] is > 60 µM (not active); in data set [3] it was 3.39 µM (active).
In the case of `CCc1nnc(N/N=C\c2ccc(OC(C)=O)c(OC)c2)n1N`, the EC50 in data set [5] is recorded as > 195 µM (not active).
`Cc1ccc(-c2csc(NCCn3c(-c4ccncc4)nc4cc(C(F)(F)F)ccc43)n2)cc1`: the AC50 in data set [4] is 8 µM (active).
For `O=C(c1csnn1)N1CCC[C@@]2(CCN(Cc3nccs3)C2)C1`, in data set [6] (read-out: AC50), the AC50 is 25.1 µM (inconclusive).
For `C=CCC(C(=O)OC)(C(=O)OC)c1ccc([N+](=O)[O-])cn1`, the AC50 in data set [6] (read-out: AC50) is 14.1 µM (inconclusive).
On to `O=C(Oc1ccccc1)N1CCC2(CCCN(c3ccccc3)C2)CC1`, for which the values for the AC50 in data set [1] and in data set [7] were 12.6 µM (inconclusive) and 31.6 µM (inconclusive), respectively.
Take `CC(=O)Nc1ccccc1C(=O)OCC(=O)c1ccc2ccccc2c1`: in data set [6] (read-out: AC50), the AC50 was 1.26 µM (inconclusive).
Take `COCCn1c(=O)[nH]c2cc(C(=O)N3CCN(c4ccccc4OC)CC3)ccc2c1=O`: the AC50 in data set [6] (read-out: AC50) is 6.31 µM (inconclusive); in data set [7] it was 14.1 µM (inconclusive).
As to `Cc1ccc(C(=O)Nc2ccc(C(=O)/C=C/c3cccs3)cc2)cc1`, the AC50 was 7.08 µM (inconclusive) in data set [6] (read-out: AC50), 11.2 µM (inconclusive) in data set [1] and 5.01 µM (inconclusive) in data set [7].
As to `COC(=O)[C@H]1C[C@@H]1[C@H](NC(=O)c1cc(C)on1)c1ccccc1`, the AC50 in data set [1] is 31.6 µM (inconclusive); in data set [7], 15.8 µM (inconclusive).
Consider `COc1ccc(CC2SC(N/N=C/c3ccccc3O)=NC2=O)cc1` (stereo unspecified), for which, in data set [4], the AC50 is 8.79 µM (active).
On to `Cc1cc(Cl)ccc1OCC(=O)Nc1nc(-c2cccnc2)cs1`, for which the EC50 in data set [5] is listed as > 195 µM (not active).
As for `CCOC(=O)N1CCC(NC(=O)CCC(=O)N2CCOc3ccccc32)CC1`, the AC50 in data set [6] (read-out: AC50) was 14.1 µM (inconclusive); in data set [7], 10 µM (inconclusive).
`Cc1cc(C(=O)Nc2nc3c(s2)CCCC3)cs1`: in data set [4], the AC50 is 1.97 µM (active).
On to `c1cncc(CNc2nc(-c3ccoc3)nc3ccccc23)c1`, for which the AC50 in data set [6] (read-out: AC50) was 20 µM (inconclusive).
With `CC(=O)Nc1ccc2c(c1)/C(=N/c1ccc(C(=O)O)cc1)c1ccccc1-2`, the AC50 in data set [7] is 3.98 µM (inconclusive).
Turning to `COC(=O)[C@@]1(Cc2ccc(OC)cc2)[C@H]2c3cc(C(=O)N4CCCC4)n(Cc4cc(F)c(F)c(F)c4)c3C[C@H]2CN1C(=O)c1ccccc1`, the AC50 in data set [6] (read-out: AC50) was 1.58 µM (inconclusive).
Turning to `COc1ccc(CN2CCN(Cc3csc(C(C)=O)c3)CC2CCO)c(C)c1C` (stereo unspecified), the EC50 is > 60 µM (not active) in data set [2] and 0.284 µM (active) in data set [3].
As to `Cc1ccc(C)c(N2CN(Cc3cccnc3)CN=C2S)c1`, the EC50 in data set [2] was > 60 µM (inconclusive); in data set [3] it was 0.726 µM (active).
As for `CN1CCN(c2ccc(S(=O)(=O)N3CCOCC3)cc2NC(=O)CCc2ccccc2)CC1`, the EC50 in data set [2] was > 30 µM (not active); in data set [3] it was 1.58 µM (active).
Consider `Cc1cc(C)c(S(=O)(=O)N/N=C/c2ccc3c(c2)OCO3)c(C)c1`, for which the EC50 in data set [5] is > 195 µM (not active).
Regarding `CC(C)(C)C(=O)N1CCC(O)(CS(=O)(=O)Cc2ccc(Cl)cc2)CC1`, the AC50 in data set [7] is 20 µM (inconclusive).
In the case of `COc1ccc(-n2c(-c3ccccc3)nc(=S)c3c2CCCC3)cc1`, in data set [7], the AC50 is 20 µM (inconclusive).
In the case of `CN1CC[C@@]2(CCCN(C(=O)c3cc(C(F)(F)F)cc(C(F)(F)F)c3)C2)C1`, the AC50 in data set [7] is 25.1 µM (inconclusive).
Consider `CN=C(S)N(CCc1c(C)[nH]c2ccc(Cl)cc12)Cc1cccs1`, for which the results for the EC50 in data set [2] and in data set [3] were > 30 µM (not active) and 2.28 µM (active), respectively.
With `CC(C)(C)c1ccc(C(=O)Nc2cccc3c(=O)[nH][nH]c(=O)c23)cc1`, in data set [5], the EC50 is 3.66 µM (active).
Regarding `N#Cc1ccccc1-c1ccc2ncnc(NCc3cccs3)c2c1`, the results for the AC50 in data set [6] (read-out: AC50) and in data set [1] were 39.8 µM (inconclusive) and 1 µM (inconclusive), respectively.
Regarding `COc1ccccc1-c1cncnc1NCCNC(C)=O`, the AC50 in data set [6] (read-out: AC50) was 39.8 µM (inconclusive).
As for `Cc1[nH]n(-c2ccccc2)c(=O)c1/N=N/c1cccc([N+](=O)[O-])c1`, the EC50 is > 60 µM (not active) in data set [2] and > 30 µM (not active) in data set [3].
As for `COc1cccc(CN(C)CC2CCCN(CCc3ccc(Cl)cc3)C2)c1OC` (stereo unspecified), the EC50 in data set [5] is given as > 195 µM (not active).
With `NC(=O)c1cc2ccncc2c2ccccc12`, the EC50 in data set [5] is 4.29 µM (active).
Consider `CC(=O)OC1N=C(c2ccccc2)c2cc(Br)ccc2N(C)C1=O` (stereo unspecified), for which the values for the AC50 in data set [6] (read-out: AC50) and in data set [1] were 39.8 µM (inconclusive) and 17.8 µM (inconclusive), respectively.
Consider `CS(=O)(=O)N1CCN(c2cccc(Cl)n2)CC1`, for which, in data set [5], the EC50 is > 195 µM (not active).
In the case of `CC1=C(CC(=O)O)c2cc(F)ccc2/C1=C\c1ccc(S(C)(=O)=O)cc1` [EXISULIND], the AC50 result in data set [6] is recorded as “inconclusive”.
Turning to `O=C(COC(=O)c1cccnc1Cl)c1ccccc1`, the results for the AC50 in data set [6] (read-out: AC50) and in data set [1] were 39.8 µM (inconclusive) and 17.8 µM (inconclusive), respectively.
Consider `C[C@@]12CCC(=O)C=C1CC[C@H]1[C@@H]2[C@@H](O)C[C@]2(C)[C@@H]1CC[C@@]2(O)C(=O)COC(=O)C1CCCC1`, for which the AC50 in data set [7] is 5.01 µM (inconclusive).
On to `CCOc1ccc(-c2nnc3ccc(SC)nn23)cc1`, for which the AC50 in data set [6] (read-out: AC50) was 7.94 µM (inconclusive).
On to `COc1ccc2c(c1)C=C(CN1CCN(C3CCCC3)C(CCO)C1)CO2` (stereo unspecified), for which the figures for the EC50 in data set [2] and in data set [3] were > 60 µM (not active) and 1.75 µM (active), respectively.
Regarding `COC(=O)C/C=C\[C@@H](C)[C@@H](/C=N\OC[C@@H](C)[C@H](OCc1ccccc1)C(C)C)OC`, the AC50 in data set [6] (read-out: AC50) was 2 µM (inconclusive); in data set [1], 3.16 µM (inconclusive); in data set [7] it was 3.16 µM (inconclusive).
On to `CCCNC(=O)c1cccc(COCC(F)(F)F)c1`, for which, in data set [5], the EC50 is given as > 195 µM (not active).
As for `C/C(=N\N(Cc1ccccc1)c1ccccc1)c1cccnc1`, the EC50 is > 60 µM (not active) in data set [2] and 3.78 µM (active) in data set [3].
In the case of `CCC(=O)N1CCc2cc(S(=O)(=O)NC(C(=O)NCc3ccc(C)cc3)C(C)C)ccc21` (stereo unspecified), in data set [5], the EC50 is recorded as > 195 µM (not active).
Still for that read-out and setting: in the case of `COc1cc(NC(=O)N[C@@H](Cc2c[nH]c3ccccc23)C(=O)O)c(C(=O)O)cc1OC` it was > 195 µM (not active).
In the case of `CCc1c(C)c(C#N)c2nc3ccccc3n2c1Nc1c(C)n(C)n(-c2ccccc2)c1=O`, the concentration at half-maximal activity (AC50) is 25.1 µM (inconclusive) in data set [6] (read-out: AC50) and 5.01 µM (inconclusive) in data set [1].
For `CCOc1ccc(CCNC(=O)c2nn(C)c3c2CS(=O)(=O)c2ccccc2-3)cc1`, in data set [5], the EC50 is given as > 195 µM (not active).
With `N=C(N)N[C@H](CCC(=O)O)C(=O)O`, the AC50 in data set [7] is 3.16 µM (inconclusive).
